{"source": "patent US20090054510A1", "about": "“METHOD FOR IDENTIFYING COMPOUNDS FOR THE TREATMENT OF DEPRESSION” (H. LUNDBECK A/S, priority 2006, published 2009)", "key": {"[1]": {"test_system": "extra cellular serotonin levels (ventral hippocampus)", "assay": "3-day microdialysis in rats (minipumps)", "type": "in vivo, rat", "conditions": "4 mg/kg vs 10 mg/kg (S)-citalopram, oxalate salts, FIG. 4", "procedure": "(§1) Male Sprague-Dawley rats, initially weighing 275-300 g, are used\n(§2) Rats are anaesthetised with hypnorm/dormicum (2 ml/kg) and intracerebral guide cannulas (CMA/12) are stereotaxically implanted into the hippocampus, aiming to position the dialysis probe tip in the ventral hippocampus (co-ordinates: 5.6 mm posterior to bregma, lateral −5.0 mm, 7.0 mm ventral to dura or in the frontal cortex (co-ordinates: 3.2 mm anterior to bregma; lateral, 0.8 mm; 4.0 mm ventral to dura). Anchor screws and acrylic cement are used for fixation of the guide cannulas. The body temperature of the animals is monitored by rectal probe and maintained at 37° C. The rats are allowed to recover from surgery for 2 days, housed singly in cages. On the day of the experiment, a microdialysis probe (CMA/12, 0.5 mm diameter, 3 mm length) is inserted through the guide cannula.\n(§3) The probes are connected via a dual channel swivel to a microinjection pump. Perfusion of the microdialysis probe with filtered Ringer solution ([…], 3 mM KCl, 1 mM MgCl2, 1.2 mM CaCl2) is begun shortly before insertion of the probe into the brain and continued for the duration of the experiment at a constant flow rate of 1 μL/min. After 180 min of stabilisation, the experiments are initiated. Dialysates were collected every 20 min. […]\n(§4) Concentration of 5-HT in the dialysates is analysed by means of HPLC with electrochemical detection. […]"}, "[2]": {"molecular_target": "T1, hSERT (Homo sapiens, UniProt P31645)", "T1 construct": "expressed in transfected cells; host or cells: HEK293 cells expressing hSERT; membranes", "T1 sequence (P31645 whole entry)": "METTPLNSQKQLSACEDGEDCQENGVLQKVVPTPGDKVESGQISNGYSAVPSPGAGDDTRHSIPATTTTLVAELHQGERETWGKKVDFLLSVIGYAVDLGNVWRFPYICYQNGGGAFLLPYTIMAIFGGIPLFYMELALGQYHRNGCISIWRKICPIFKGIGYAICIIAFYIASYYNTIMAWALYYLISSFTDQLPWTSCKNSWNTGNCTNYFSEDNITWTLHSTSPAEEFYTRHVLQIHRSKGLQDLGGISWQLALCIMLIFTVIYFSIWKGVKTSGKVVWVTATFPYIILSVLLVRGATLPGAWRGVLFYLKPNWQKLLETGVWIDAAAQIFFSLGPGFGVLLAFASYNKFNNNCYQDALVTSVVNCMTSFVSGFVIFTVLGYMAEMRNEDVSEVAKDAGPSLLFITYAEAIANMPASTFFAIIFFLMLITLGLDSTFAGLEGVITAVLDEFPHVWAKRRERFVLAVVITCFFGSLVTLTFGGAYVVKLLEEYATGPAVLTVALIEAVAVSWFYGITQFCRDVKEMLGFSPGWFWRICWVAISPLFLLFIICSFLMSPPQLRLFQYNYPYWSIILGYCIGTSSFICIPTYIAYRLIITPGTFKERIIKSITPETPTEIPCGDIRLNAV", "type": "binding", "conditions": "increasing concentrations of (R)-citalopram; FIG. 2", "protocol": "Association rates are determined on membrane preparations from HEK293 cells transiently expressing hSERT. The kinetics of the association of the [^3H]compound- SERT complex is determined after incubation of aliquots consisting of 10 μg membranes from HEK293 cells transiently expressing hSERT and 290 μL [^3H]test compound pre incubated until equilibrium. Association is initiated by addition of radioligand in the absence or presence of R-citalopram (0-300 μM). Bound [^3H]test compound is measured after 0, 2, 5, 10, 15, 20, 30, 50, 70 and 90 minutes.\nHEK293 cells expressing hSERT are harvested and 10 μg HEK293-hSERT membrane is placed in each well in a 96 well microtiter plate. […] Concentration of test-compounds is varied from the nM to the μM range. Incubation-time is 0, 2, 5, 10, 15, 20, 30, 50, 70 and 90 minutes on ice or at room temperature (22° C.). Mebranes are harvested in ice-cold ELGA-water onto a GF/C fiberglass filter (Presoaked with 0.5% PEI for 30 min). Filters are rinsed twice with 2×0.5 ml ice-cold ELGA-water. The filters are dried and added 40 L of scintillation fluid."}, "[3]": {"test_system": "extracellular serotonin in the ventral hippocampus", "assay": "Microdialysis in rats, single administration ± (R)-citalopram", "type": "in vivo, rat", "conditions": "FIG. 3", "procedure": "as §1, §2, §3, §4"}, "[4]": {"molecular_target": "T1, hSERT", "assay": "[3H]-(S)-citalopram dissociation from SERT (allosteric site binding)", "procedure": "The assay procedure was modified based on the methods described in Pharmacol. Toxicol., 80, 197-201, 1997 and J.Neurochem., 92, 21-28, 2005.\nPeakRapid 293 cells (Edge Biosystems, Gaithersburg, Md.) were cultured in Dulbecco's Modified Eagle Medium (DMEM) supplemented with 10% bovine calf serum, 4 mM L-glutamine, 100 units/ml penicillin and 100 μg/ml streptomycin) at 37° C., 5% CO2. Human SERT cDNA in a mammalian expression vector was transiently transfected into PeakRapid 293 cells using 10 μg total DNA in 150 cm2 flasks by lipofectamine method (Invitrogen, Carlsbad, Calif.). Two days after transfection, membranes were harvested.\nBinding assays were conducted in buffer containing 50 mM Tris, 120 mM NaCl, and 5 mM KCl, PH 7.4. Prior to dissociation binding, [3H]-(S)-citalopram (40 nM) was incubated with hSERT membranes (5 ug/10 ul) for 2 hours at room temperature. The reaction mixture was dispensed into 96 well format minitubes at 10 ul/well and kept on ice. […] Bound ligand was counted using a Trilux counter.\nDissociation binding data were analyzed using GraphPad Prism 4 (GraphPad, San Diego, Calif.) and Xlfit 4 (IDBS, Guildford, Surrey, UK). […] The ratios (k/k0) of the rate (k) in the presence compounds over the rate (k0) in the absence of compounds were calculated for each compound concentration. […]"}}}
{"compound": "CNCc1ccccc1Sc1c[nH]c2cc(F)ccc12", "note": "[[2-(6-Fluoro-1H-indol-3-ylsulfanyl)-benzyl]-methyl-amine]", "values": [{"measurement": "increase in serotonin levels compared with (S)-citalopram", "setting": "[1]", "value": "faster and more pronounced increase in the serotonin levels than (S)-citalopram"}, {"measurement": "effect of (R)-citalopram on association of the [3H] ligand to SERT", "setting": "[2]", "value": "almost unaffected by (R)-citalopram"}, {"measurement": "extracellular serotonin in the ventral hippocampus", "setting": "[3]", "value": "significant increase"}, {"measurement": "effect of concomitant (R)-citalopram on the increase in extracellular serotonin", "setting": "[3]; ventral hippocampus", "value": "not affected by concomitant administration of (R)-citalopram"}, {"measurement": "slowing of 3H (S)-citalopram dissociation rate (fold modulation)", "setting": "[4]; at 200 μM", "value": 5.4, "unit": "fold"}, {"measurement": "IC50", "setting": "[4]; hSERT membranes, [3H]-(S)-citalopram 40 nM, room temperature, N=2, read-out: IC50 of binding to an allosteric site (from k/k0 of 3H-(S)-citalopram dissociation)", "value": 26, "unit": "µM"}]}
